Measurements from patent EP0203559A1, “Penicillin derivative containing naphthyridine” (AUSONIA FARMACEUTICI S.r.l., priority 1985, dated 1986).
≈ marks a conversion by molar mass, not a printed value.

Assays:
[1] = test system: Gram-positive and Gram-negative strains resistant to amoxicillin alone; experiment: MIC of amoxicillin alone against the resistant strains of Table 3; assay type: cell-based
Citrob. freundii = experiment: In vitro antibacterial activity (MIC), compound I versus 1:1 combination with amoxicillin (Table 3); assay type: cell-based; details: Citrobacter freundii, 2 strains, average value, compound I alone
[2] = test system: B-lactamases from both Gram-positive and Gram-negative bacteria; experiment: Inhibitory activity against B-lactamases; assay type: biochemical; details: dosage of 100 δ
Protocol: (§1) In order to further evaluate its therapeutic potentiality, compound I was tested for any inhibitory activity against B-lactamases.

Staph. aureus CH1 = experiment: Minimal inhibitory concentrations (MIC) against amoxicillin resistant bacteria (Table 1); assay type: cell-based; details: Staphylococcus aureus, Staph. aureus CH1, 1 strain
Pseudomonas aeruginosa = experiment: In vitro antibacterial activity (MIC), compound I versus 1:1 combination with amoxicillin (Table 3); assay type: cell-based; details: 5 strains, average value, compound I alone
[3] = test system: CSH28F'lacproxZM46 (plasmid F'lacpro, Inc FI); experiment: Inhibition of plasmid transfer by conjugation; assay type: cell-based, E. coli; details: Escherichia coli
Excerpt: (§2) Another advantageous feature of compound I resides in its ability to inhibit the transfer of bacterial plasmids by conjugation, said ability being shared by other compounds of quinoline structure and being important since it interferes with transmission of bacterial resistance.
(§3) Phenotype symbols according Novick et al. (1976) were used.
(§4) The following antibiotics were used: streptomycin (Sm), tetracycline (Tc), ampicillin (Ap), kanamycin (Km) and rifampicin (Rif). Compound I in 1 and 10 mcg/ml concentrations was used in the transfer mixtures. • - Microorganisms were grown in Nutrient Broth (B.B.L.), NB, or in Nutrient Agar or Mc Conkey Agar (B.B.L.). Appropriate antibiotic concentrations were added to the selection plates. Sm 10, Tc 10, Ap 30, Km 30, Rif 100 and Nal 50. • - Bacterial strains were incubated till 2.5 x 10^8 cells/ml of nutrient broth exponential phase, and crossed in a donor/recipient 1:5 ratio in 2 x broth during 18 hours at 37°C. On the other hand, in the interrupted crosses, the bacteria were stirred by means of the Vortex apparatus for 1 minute after 1 h cross. • - About one hundred colonies, which could growth on the selection plates (containing the various antibiotics) were checked for the resistance spectrum by "replica plating". • - The transfer frequence was expressed as the number of resistent recipients in comparison with the number of donors in the mating mixtures, at the plating time. The inhibition rate of plasmid transfer was evaluated in tests in which, in the mating mixtures, compound I was present in 1 or 10 mcg/ml concentrations.
(§5) The activity of compound I was tested in different cross systems between E. coli x E. coli.

[4] = test system: CSH50(RP4)xZM46 (plasmid RP4, Inc P); experiment: Inhibition of plasmid transfer by conjugation; assay type: cell-based, E. coli; details: Escherichia coli
Excerpt: as §2, §3, §4, §5

[5] = test system: UR10(R446)xZM46 (plasmid R446, Inc M); experiment: Inhibition of plasmid transfer by conjugation; assay type: cell-based, E. coli; details: Escherichia coli
Excerpt: as §2, §3, §4, §5

Staph. albus [6] = experiment: In vitro antibacterial activity (MIC), compound I versus 1:1 combination with amoxicillin (Table 3); assay type: cell-based; details: 1 strain, compound I alone
Proteus mirabilis = experiment: Minimal inhibitory concentrations (MIC) against amoxicillin resistant bacteria (Table 1); assay type: cell-based; details: 3 strains
B-lactamases = experiment: Stability to B-lactamases; assay type: in vitro ADME
E. coli [7] = experiment: In vitro antibacterial activity (MIC), compound I versus 1:1 combination with amoxicillin (Table 3); assay type: cell-based; details: Escherichia coli, 2 strains, average value, compound I alone
Salmonella enteriditis = experiment: as above; assay type: cell-based; details: 2 strains, average value, compound I alone
[8] = test system: ß-Lactamase isolated from: B. cereus; experiment: Inhibition of hydrolysis rates of ß-lactamases; assay type: biochemical
Protocol: as §1

[9] = test system: ß-Lactamase isolated from: E. coli; experiment: Inhibition of hydrolysis rates of ß-lactamases; assay type: biochemical
Protocol: as §1

Serratia marcescens [10] = experiment: In vitro antibacterial activity (MIC), compound I versus 1:1 combination with amoxicillin (Table 3); assay type: cell-based; details: 2 strains, average value, compound I alone
Staph. aureus coag. pos. = experiment: Minimal inhibitory concentrations (MIC) against amoxicillin resistant bacteria (Table 1); assay type: cell-based; details: Staphylococcus aureus, 4 strains
Enterob. cloacee = experiment: In vitro antibacterial activity (MIC), compound I versus 1:1 combination with amoxicillin (Table 3); assay type: cell-based; details: 2 strains, average value, compound I alone
[11] = test system: tryptic enzymes (trypsin, pepsin, etc.); experiment: Stability to tryptic enzymes; assay type: in vitro ADME
Staph. albus [12] = experiment: Minimal inhibitory concentrations (MIC) against amoxicillin resistant bacteria (Table 1); assay type: cell-based; details: 1 strain
Staph. aureus = experiment: In vitro antibacterial activity (MIC), compound I versus 1:1 combination with amoxicillin (Table 3); assay type: cell-based; details: Staphylococcus aureus, 8 strains, average value, compound I alone
Pseudomas aeruginosa = experiment: Minimal inhibitory concentrations (MIC) against amoxicillin resistant bacteria (Table 1); assay type: cell-based; details: 5 strains
E. coli [13] = experiment: as above; assay type: cell-based; details: Escherichia coli, 6 strains
Proteus rettgeri = experiment: In vitro antibacterial activity (MIC), compound I versus 1:1 combination with amoxicillin (Table 3); assay type: cell-based; details: Providencia rettgeri, 1 strain, compound I alone
Klebsiella pneumoniae = experiment: as above; assay type: cell-based; details: 4 strains, average value, compound I alone
Serratia marcescens [14] = experiment: Minimal inhibitory concentrations (MIC) against amoxicillin resistant bacteria (Table 1); assay type: cell-based; details: 2 strains

For `CC1(C)S[C@@H]2[C@H](NC(=O)[C@H](N)c3ccc(O)cc3)C(=O)N2[C@H]1C(=O)O` [amoxicillin], the MIC [1] was no less than 800 µg/mL.

`CCn1cc(C(=O)NC(C(=O)NC2C(=O)N3C2SC(C)(C)C3C(=O)O)c2ccc(O)cc2)c(=O)c2ccc(C)nc21` [Compound I, D-(-)-α-[(1-ethyl-1,4-dihydro-7-methyl-4-oxo-1,8-naphthyridine-3-carboxyamido)-α-(p-hydroxyphenyl)-acetamido]penicil lanic acid] was tested, and the MIC (Citrob. freundii) was 100 µg/mL, the “inhibition of enzymatic activity of B-lactamases” value [2] was “completely inhibiting any enzymatic activity” and the MIC (Staph. aureus CH1) was 1.56 µg/mL (≈ 2.69 µM). The MIC (Pseudomonas aeruginosa) was 50 µg/mL, the inhibition at 1 µg/mL [3] was 40.2% and the inhibition at 10 µg/mL [3] was 69.7%. For the same compound, the inhibition at 1 µg/mL [4] was 36.4%, the inhibition at 10 µg/mL [4] was 66.2% and the inhibition at 1 µg/mL [5] was 19.1%. For the same compound, the inhibition at 10 µg/mL [5] was 74.5%, the MIC (Staph. albus [6]) was 6.25 µg/mL and the MIC (Proteus mirabilis) was 25 µg/mL (≈ 43.1 µM). The “stability to B-lactamases” value (B-lactamases) was “stable to B-lactamases”, the MIC (E. coli [7]) was 75 µg/mL and the MIC (Salmonella enteriditis) was 100 µg/mL. For the same compound, the “% inhibition” value ([8]; Conc. 50 γ/ml) was 50%, the “% inhibition” value ([8]; Conc. 75 γ/ml) was 90% and the “% inhibition” value ([8]; Conc. 100 γ/ml) was 100%. For the same compound, the “% inhibition” value ([9]; Conc. 50 γ/ml) was 50%, the “% inhibition” value ([9]; Conc. 75 γ/ml) was 90% and the “% inhibition” value ([9]; Conc. 100 γ/ml) was 100%. For the same compound, the MIC (Serratia marcescens [10]) was 50 µg/mL, the MIC (Staph. aureus coag. pos.) was 3.12 µg/mL (≈ 5.38 µM) and the MIC (Enterob. cloacee) was 100 µg/mL. For the same compound, the “stability to tryptic enzymes (trypsin, pepsin, etc.)” value [11] was “stable to tryptic enzymes”, the MIC (Staph. albus [12]) was 6.25 µg/mL (≈ 10.8 µM) and the MIC (Staph. aureus) was 10.3 µg/mL. The MIC (Pseudomas aeruginosa) was 50 µg/mL (≈ 86.3 µM), the MIC (E. coli [13]) was 25 µg/mL (≈ 43.1 µM) and the MIC (Proteus rettgeri) was 50 µg/mL. The MIC (Klebsiella pneumoniae) was 87.5 µg/mL and the MIC (Serratia marcescens [14]) was 50 µg/mL (≈ 86.3 µM).
